Laboratory results: patent EP1527784B1, “Method for extracting antineoplastic components from Bupleurum scorzonerifolium and composition comprising lactones” (Buddhist Tzu Chi General Hospital, priority 2003, dated 2005)
Values after ≈ are worked out from the molar mass of the structure shown.

How the values were obtained:
tumor cells = conditions: in two years; initial treatment stage; cited from earlier work
β-tubulin = test: Immunoblot of soluble and particular (polymerized) β-tubulin in A549 cells; type: cell-based, human; conditions: FIG. 7
p53 = test: Western blotting of tumor suppressor p53; type: cell-based, human; conditions: A549 cells, FIG. 5, 1 day or 3 days
p21 = test: Western blotting of tumor suppressor p21; type: cell-based, human; conditions: A549 cells, FIG. 5, 1 day or 3 days
[1] = system: human hepatoma cell line J5, ovarian cancer cell line OVCAR-3, human malignant glioblastoma cell line DBTRG-05MD, lung cancer cell line A549 and colorectal …; test: MTT cytotoxicity screening of extracts and components on a tumor cell line panel; type: cell-based; conditions: MTT assay / drug screening; Table 1 cited but not given
Description: Each of the aforementioned heterocyclic compounds from each extract as well as the acetone crude extracts of Bupleurum scorzonerifolium are assayed to measure the antineoplastic activity. It was shown that majority of antineoplastic components of Bupleurum scorzonerifolium are retained in the BS-AE and BS-ME. The BS-HE and BS-CE hardly have any tumor-suppressing effects. Besides, the extracts can be further purified using chromatography method (e.g. low pressure liquid chromatography or high performance liquid chromatography (HPLC)), such that fractions are collected separately after each elution to obtain the pure compounds mentioned above.
Moreover, from chemical analysis of the main representative molecular structure of the eighth component, it was observed that the compound shares a common feature shown in formula (I) as having a γ-butyrolactone-centred heterocyclic compound with Z configuration or E configuration at carbon 2(5), or pharmacologically compatible salts, esters, ketones or their derivatives. [drawing 19] where the heterocyclic compound may have a 3R or 3S configuration, X can be N, O, S, or Se, andA, B can be selected from the following substituents: [drawing 20] where R1, R2, R3, R4, R5 can be selected from hydrogen atom, a halogen atom, a hydroxyl group, a sulfoxyl group, an amino group, a methoxyl group, and a nitro group. […]

A549-T12 cells = test: MTT cytotoxicity assay on Taxol-resistant lung cancer cells; type: cell-based; conditions: Taxol-resistant human lung cancer cell line A549-T12; read-out: concentration that causes 50% growth inhibition (IC50)
Source text: On the other hand, when the BS-AE containing γ-butyrolactone heterocyclic compounds, such as isochaihulactone and BS-AE are applied on Taxol-resistant tumor cell line, for example, human lung cancer cell line A549-T12, they also show anti-tumor effects on the resistant tumor cells. […] Furthermore, the tumor-suppressing effects of those Bupleurum scorzonerifolium extracts after isolated by the extraction method of this invention are more prominent.
(§1) The following embodiments are described with Taxol-resistant tumor cell A549-T12 (passage cultured from lung cancer cell line A549 cells with low concentration of taxol) as an example to test the effect of BS-A and its pure compounds (these represent chaihulactone and chaihulactone analogues). Flow cytometry, cytotoxicity, and biomolecular examinations are adopted to estimate the mechanism of Bupleurum scorzonerifolium extracts on Taxol-resistant tumor cells.
Furthermore, a lower dose (2-4 µg/ml) of isochaihulactone is required to induce apoptosis on A549-T12 cells than that of A549 cells (8-10 µg/ml).

A549-T12 = test: Annexin V-FLOUS / PI flow cytometry for apoptosis, Taxol-resistant cells; type: cell-based; conditions: Homo sapiens, 48 hours, untreated group 6.8%, read-out: ratio of apoptotic tumor cell
Source text: as §1
FIGs. […] Among these figures, X-axis represents the fluorescent brightness of tumor cells with antibody Annexin V-FLOUS whereas Y-axis represents the fluorescent brightness of tumor cell with antibody PI. […] This indicates isochaihulactone has better induction for apoptosis of Taxol-resistant tumor cell line than other chaihulactone analogues.

A549 cells [2] = test: Annexin V-FLOUS / PI flow cytometry for apoptosis; type: cell-based; conditions: Homo sapiens, 48 hours, untreated group 3.8%, read-out: proportion of cell death (apoptosis)
Description: In A549 cells, 20 µM of Isochaihulactone and 60 µg/ml of BS-AE are added to A549 cell line. After 48 hours of treatment, flow cytometry is utilized to detect the staining results between Annexin V-FLOUS and PI. In FIGs. 3A through to 3C, X-axis represents the fluorescent brightness of tumor cells with antibody Annexin V-FLOUS, and Y-axis represents the fluorescent brightness of tumor cells with antibody PI. From the diagrams, it was shown that the untreated group has only 3.8% of apoptosis, whereas A549 cells treated with Isochaihulactone and BS-AE has much higher proportion of cell death (about 30-40%).

A549 cells [3] = test: Cell cycle analysis by flow cytometry (PI); type: cell-based, human; conditions: FIG. 4; concentration not given
Description: Furthermore, flow cytometry is employed to observe the changes in cell cycle before and after the addition of different extracts from Bupleurum scorzonerifolium to A549 cells. In figures 2A through to 2D, X-axis represents chromosome numbers (2N, 4N, etc.) of tumor cells in contact with the antibody, Y-axis represents the fluorescent brightness of Propidium Iodide (PI). It is clearly noted that before treatment lung cancer cell line A549 is mainly at stage of G0/G1, but when 60 µg/ml of BS-AE and 600 µg/ml of BS-ME are added to the tumor cells, the tumor cells are arrested at G2/M stage. This is particularly the case for BS-ME.

SMILES	improvement of survival rate of the patient (tumor cells)	particular form (polymerized β-microtubule) (β-tubulin)	soluble form (non-polymerized β-microtubule) (β-tubulin)	expression level of tumor suppressor p53 (p53)	expression level of tumor suppressor p21 (p21)	antineoplastic effect (comparison among extracts and components) [1]	IC50 (A549-T12 cells) [µg/mL]	cytotoxicity at 8 µg/mL (A549-T12) [%]	cytotoxicity at 20 µM (A549 cells [2]) [%]	cell cycle stage of tumor cells (A549 cells [3])
CC(=O)O[C@H]1C(=O)[C@@]2(C)[C@H]([C@H](OC(=O)c3ccccc3)[C@]3(O)C[C@H](OC(=O)[C@H](O)[C@@H](NC(=O)c4ccccc4)c4ccccc4)C(C)=C1C3(C)C)[C@]1(OC(C)=O)CO[C@@H]1C[C@@H]2O [Taxol, Paclitaxel]	about 15%									
COc1cc(/C=C2\C(=O)OC[C@@H]2Cc2ccc3c(c2)OCO3)cc(OC)c1OC [isochaihulactone, Isochaihulactone]		increases	significantly diminishes	increase in expression level	increase in expression level	most prominent anti-tumor effects	2 to 4 (≈ 5.02 to 10 µM)	30.6	30 to 40	arrest at the stage G2/M
COc1ccc(/C=C2\C(=O)OC[C@@H]2Cc2ccc3c(c2)OCO3)cc1OC [BS-15, Isokaerophyllin]								23.1		
